Data on nine molecules can be found in patent US20260199497A1, “GLUCOCORTICOID RECEPTOR AGONIST AND CONJUGATE THEREOF” (priority 2023, published 2026).

The experiment deals with T1, glucocorticoid receptor (Homo sapiens, UniProt P04150).
T1 sequence (P04150 524-777 limits assumed): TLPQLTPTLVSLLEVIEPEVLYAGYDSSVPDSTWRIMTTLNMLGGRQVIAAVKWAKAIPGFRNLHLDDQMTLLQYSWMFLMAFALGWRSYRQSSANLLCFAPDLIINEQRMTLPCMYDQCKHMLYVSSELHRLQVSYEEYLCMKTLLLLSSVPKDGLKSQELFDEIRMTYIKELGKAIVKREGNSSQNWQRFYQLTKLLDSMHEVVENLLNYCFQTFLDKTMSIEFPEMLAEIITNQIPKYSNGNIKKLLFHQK
The experiment is described as follows: GRE reporter gene test (Experiment Example 2), HEK293T cells transfected with pGL4.35 and p-Bind GR Vector. It counts as cell-based. Particulars: for EC50: GRE reporter gene, HEK293T cells, 18-20 h incubation; for Emax: HEK-293T; for maximum agonistic activity (Emax): compared with dexamethasone, transfected HEK293T cells. As for the experimental part: The compound of the present invention to be tested was formulated into a 1 mM solution with DMSO, and then subjected to 4-fold dilution at 10 concentration points using DMSO to obtain a 1000× mother liquor, with a final test concentration of 0.0000038-1 μM.
HEK293T cells (ATCC) were plated in a 100 mm culture dish at a density of 6*10^6 cells/culture dish, and cultured for 16 h under the conditions of 37° C. and 5% CO2. Plasmids (pGL4.35 [luc2P/9XGAL4 UAS/Hygro], p-Bind GR Vector, Promega) and Lipofectamine® 3000 (Invitrogen) were mixed, added into the culture dish, and then incubated for 5-6 h under the conditions of 37° C. and 5% CO2.
In a 384-well plate (PerkinElmer), 25 nL of the compound mother liquor was added, and then HEK293T cells transfected with plasmids were added at a density of 18000 cells/well (25 μL). The cells were incubated for 18-20 h under the conditions of 37° C. and 5% CO2.
After the incubation was ended, 25 μL of britelite plus luciferase assay reagent (PerkinElmer) was added, and then reading was performed using an Envision 2105 multimode reader (PerkinElmer).
The activity was calculated using the following formula, % activity=100*(signal of compound well−average signal of negative control well)/(average signal of positive control well−average signal of negative control well). […] Fitting calculation of EC50 was performed on % activity and the logarithmic concentration of the compound using Graphpad 8.0, Y=Bottom+(Top−Bottom)/(1+10^((Log EC50−X)*HillSlope)), wherein Y is % activity, and X is the logarithmic concentration of the compound.
(Reporter assays use an easily measured gene product as a stand-in for the process of interest.)

The term EC50 denotes the concentration giving half of the maximal effect. By Emax is commonly meant the maximal effect, on the per cent scale that the assay sets. In turn, `C[C@@H]1C[C@H]2[C@@H]3C[C@H](F)C4=CC(=O)C=C[C@]4(C)[C@@]3(F)[C@@H](O)C[C@]2(C)[C@@]1(OC(=O)c1ccc(CO)cc1)C(=O)SCF` [B-31, (6S,8S,9R,10S,11S,13S,14S,16R,17R)-6,9-difluoro-17-(((fluoromethyl)thio)carbonyl)-11-hydroxy-10,13,16-trimethyl-3-oxo-6,7,8,9,10,11,12,13,14,15,16,17-dodecahydro-3H-cyclopenta[a]phenanthren-17-yl 4-(hydroxymethyl)benzoate] returned an EC50 of 0.32 nM and a maximal response (Emax) of 92.5%.

In the case of `C[C@]12C=CC(=O)C=C1[C@@H](F)C[C@H]1[C@@H]3CC[C@](OC(=O)c4cc(CO)co4)(C(=O)SCF)[C@@]3(C)C[C@H](O)[C@@]12F` [F-10], the EC50 came out at 0.6 nM, the Emax is 150% and the “maximum agonistic activity (Emax)” value was “superior to dexamethasone”.

Consider `CC(O)C(=O)O[C@]1(C(=O)SCF)[C@H](C)C[C@H]2[C@@H]3C[C@H](F)C4=CC(=O)C=C[C@]4(C)[C@@]3(F)[C@@H](O)C[C@@]21C` (stereo partly drawn) [D-9], for which the EC50 worked out at 3.6 nM, the Emax turned out to be 146% and the “maximum agonistic activity (Emax)” value was “superior to dexamethasone”.

`C[C@]12C=CC(=O)C=C1[C@@H](F)C[C@H]1[C@@H]3CC[C@](OC(=O)/C=C/c4ccc(F)c(N)c4)(C(=O)SCF)[C@@]3(C)C[C@H](O)[C@@]12F` [E-4] returned an EC50 of 1 nM and a maximum response (Emax) of 84.8%.

For the molecule `CC(O)CC(=O)O[C@]1(C(=O)SCF)[C@H](C)C[C@H]2[C@@H]3C[C@H](F)C4=CC(=O)C=C[C@]4(C)[C@@]3(F)[C@@H](O)C[C@@]21C` (stereo partly drawn) [D-11], the EC50 is 0.8 nM, the Emax amounted to 115% and the “maximum agonistic activity (Emax)” value is “superior to dexamethasone”.

Molecule `C[C@@H]1C[C@H]2[C@@H]3C[C@H](F)C4=CC(=O)C=C[C@]4(C)[C@@]3(F)[C@@H](O)C[C@]2(C)[C@@]1(OC(=O)c1cccc(CO)c1)C(=O)SCF` [B-35, (6S,8S,9R,10S,11S,13S,14S,16R,17R)-6,9-difluoro-17-(((fluoromethyl)thio)carbonyl)-11-hydroxy-10,13,16-trimethyl-3-oxo-6,7,8,9,10,11,12,13,14,15,16,17-dodecahydro-3H-cyclopenta[a]phenanthren-17-yl 3-(hydroxymethyl)benzoate] returned an EC50 of 2.4 nM and an Emax of 66.2%.

For the molecule `C[C@@H]1C[C@H]2[C@@H]3C[C@H](F)C4=CC(=O)C=C[C@]4(C)[C@@]3(F)[C@@H](O)C[C@]2(C)[C@@]1(OC(=O)c1ccc(CO)o1)C(=O)SCF` [F-13, (6S,8S,9R,10S,11S,13S,14S,16R,17R)-6,9-difluoro-17-(((fluoromethyl)thio)carbonyl)-11-hydroxy-10,13,16-trimethyl-3-oxo-6,7,8,9,10,11,12,13,14,15,16,17-dodecahydro-3H-cyclopenta[a]phenanthren-17-yl 5-(hydroxymethyl)furan-2-carboxylate], the EC50 worked out at 1.3 nM and the Emax was found to be 104%.

Turning to `C[C@@H]1C[C@H]2[C@@H]3C[C@H](F)C4=CC(=O)C=C[C@]4(C)[C@@]3(F)[C@@H](O)C[C@]2(C)[C@@]1(OC(=O)C[C@@H](C)O)C(=O)SCF` [D-19, (6S,8S,9R,10S,11S,13S,14S,16R,17R)-6,9-difluoro-17-(((fluoromethyl)thio)carbonyl)-11-hydroxy-10,13,16-trimethyl-3-oxo-6,7,8,9,10,11,12,13,14,15,16,17-dodecahydro-3H-cyclopenta[a]phenanthren-17-yl (R)-3-hydroxybutyrate], a half-maximal response (EC50) required 1.2 nM, the Emax came out at 120% and the “maximum agonistic activity (Emax)” value is reported as “superior to dexamethasone”.

In the case of `C[C@]12C=CC(=O)C=C1CC[C@H]1[C@@H]3CC[C@](OC(=O)c4ccc(F)c(N)c4)(C(=O)SCF)[C@@]3(C)C[C@H](O)[C@@]12F` [A-2], the EC50 turned out to be 1.7 nM and the maximal effect (Emax) was 93.7%.
